“Also recorded” adds a separate entry of the source.
Key:
[1] = test system: human leukemia cell MOLT-4; test: Growth inhibition of MOLT-4 cells (MTT or SRB assay); assay type: cell-based; conditions: read-out: Growth inhibition effect to MOLT-4 cell strain; for inhibition at 100 µM: 10^−4 M; for inhibition at 10 µM: 10^−5 M; for inhibition at 1 µM: 10^−6 M; for inhibition at 0.1 µM: 10^−7 M; for inhibition at 0.01 µM: 10^−8 M
Protocol: (§1) The procedure of MTT assay was as follows: appropriate amount of cells in log phase were seeded in 96-well plates (6000 cells/well, 15000 cells/well, 90ul/well) according to the growing rate. After cultured for 24 h, cells were exposed to serial dilutions of drugs in triplicate (10 ul/well). In addition, wells without cell, and wells without cell but with serial dilutions of drugs in case of using a colored-drug were set for zeroing. Then, the cells were cultured in 5% CO2 humidified incubator at 37° C. for 48 h. After treatment of drugs for 48 h, 20ul MTT (Sigma) which was diluted by normal saline to the concentration of 5 mg/ml was added to each well, 50ul/well 10%SDS-5% isobutanol-0.01% mol/LHCl was added after 4 h. After cultured overnight, absorbance was measured at 570 nm using a multiwell spectrophotometer. The inhibition effect of the compounds in test (percentage of growth inhibition) was calculated for each well: % inhibition=(OD570control cells−OD570treated cells)/OD570control cells×100%.
(§2) The procedure of SRB assay was as follows: appropriate amount of cells in log phase were seeded in 96-well plates according to the growing rate (90 ul/well). After cultured for 24 h, cells were exposed to serial dilutions of drugs in triplicate (10 ul/well). In addition, control wells of normal saline in corresponding concentrations and zeroing wells without cell were set. The cells were incubated in 5% CO2 humidified incubator at 37° C. After 72 h, the medium was removed and cells were fixed with cold 10% trichloric acid (TCA) at 4° C. for 1 h. The plates were washed with distilled water 5 times, and stained in room temperature with 4 mg/ml SRB (Sigma, diluted with 1% glacial acetic acid, 100 ul/well) for 15 minutes after air drying. SRB was then washed with 1% acetic acid 5 times. Plates were dried, followed by adding 150 ul/well Tris solution. Absorbance was measured at […] using a multiwell spectrophotometer. The inhibition effect of the compounds in test (percentage of growth inhibition) was calculated for each well: % inhibition=(A540control cells−A540treated cells)/A540control cells×100%.
(§3) The methods used were MTT assay or SRB assay.
(§4) The cell lines used were mice leukemia cell P388, human leukemia cell MOLT-4, human lung adenocarcinoma cell A-549, human gastric adenocarcinoma SGC-7901, human hepatocellular carcinoma BEL-7402 and human embryonal fibroblast WI-38 (commerially available from ATCC).
(§5) The exposure time to compounds was 48 h-72 h.

[2] = test system: human lung adenocarcinoma cell A-549; test: Growth inhibition of A-549 cells, SRB protein staining assay; assay type: cell-based; conditions: read-out: Growth inhibition effect to A-549 cell strain; for inhibition at 100 µM: A549, 10^−4 M; for inhibition at 10 µM: A549, 10^−5 M; for inhibition at 1 µM: A549, 10^−6 M; for inhibition at 0.1 µM: A549, 10^−7 M; for inhibition at 0.01 µM: A549, 10^−8 M
Protocol: (§6) The cell growth inhibition of mice leukemia cell P388 was evaluated by MTT (microculture tetrozolium) assay, while the cell growth inhibition of human lung adenocarcinoma cell A-549 was evaluated by SRB (Sulforhodamine B) protein staining assay.
as §2, §4, §5

[3] = test system: human gastric adenocarcinoma SGC-7901; test: Growth inhibition of SGC-7901 cells (MTT or SRB assay); assay type: cell-based; conditions: read-out: Growth inhibition effect to SGC-7901 cell strain; for inhibition at 100 µM: 10^−4 M; for inhibition at 10 µM: 10^−5 M; for inhibition at 1 µM: 10^−6 M; for inhibition at 0.1 µM: 10^−7 M; for inhibition at 0.01 µM: 10^−8 M
Protocol: as §1, §2, §3, §4, §5

mice leukemia cell P388 = test: Growth inhibition of P388 cells, MTT assay; assay type: cell-based; conditions: Mus musculus, read-out: Growth inhibition effect to P388 cell strain; for inhibition at 100 µM: 10^−4 M; for inhibition at 10 µM: 10^−5 M; for inhibition at 1 µM: 10^−6 M; for inhibition at 0.1 µM: 10^−7 M; for inhibition at 0.01 µM: 10^−8 M
Protocol: as §6, §1, §4, §5

[4] = test system: human hepatocellular carcinoma BEL-7402; test: Growth inhibition of BEL-7402 cells (MTT or SRB assay); assay type: cell-based; conditions: read-out: Growth inhibition effect to BEL-7402 cell strain; for inhibition at 100 µM: 10^−4 M; for inhibition at 10 µM: 10^−5 M; for inhibition at 1 µM: 10^−6 M; for inhibition at 0.1 µM: 10^−7 M; for inhibition at 0.01 µM: 10^−8 M
Protocol: as §1, §2, §3, §4, §5

S-180 sarcoma = test: In vivo tumor growth inhibition, S-180 sarcoma in mice; conditions: i.p. injection, listed as C9
Protocol: S-180 sarcoma developed for 7-11 days and in good growth trend was homogenated into cell suspension. The cell suspension was inoculated subcutaneously into right armpit of female KM mice (18˜22 g) (about 1.0−2.5×10^6 cells/mouse). After 24 h, the mice were grouped in random with compounds administrated by i.p. injection. From the next day on, the mice were given serial dosages. After treatment, animals were killed, and solid tumors were removed and weighed after the body weight were weighed. The inhibition rate was calculated as follows, and T-test was carried out: [(Average tumor weight of NS group−Average tumor weight of test group)/Average tumor weight of NS group]×100%.

| melting point | SMILES | inhibition at 100 µM [1] | inhibition at 10 µM [1] | inhibition at 1 µM [1] | inhibition at 0.1 µM [1] | inhibition at 0.01 µM [1] | inhibition at 100 µM [2] | inhibition at 10 µM [2] | inhibition at 1 µM [2] | inhibition at 0.1 µM [2] | inhibition at 0.01 µM [2] | inhibition at 100 µM [3] | inhibition at 10 µM [3] | inhibition at 1 µM [3] | inhibition at 0.1 µM [3] | inhibition at 100 µM (mice leukemia cell P388) | inhibition at 10 µM (mice leukemia cell P388) | inhibition at 1 µM (mice leukemia cell P388) | inhibition at 0.1 µM (mice leukemia cell P388) | inhibition at 0.01 µM (mice leukemia cell P388) | further results |
| --- | --- | --- | --- | --- | --- | --- | --- | --- | --- | --- | --- | --- | --- | --- | --- | --- | --- | --- | --- | --- | --- |
| 202 to 203 °C | CN(C)CCCn1c(=O)c2ccc3sc4ccccc4c4ccc(c1=O)c2c34 [compound 4, N-(N′, N′-dimethylaminopropyl)benzo[k, l]thioxanthene-3,4-dicarboximide] | 100% | 99.7% | 93.9% | 22.3% | 0% | 80.3% | 92.9% | 73.5% | 33.4% | 17.3% | 94.5% | 91.8% | 39.1% | 0.2% | 100% | 100% | 23.1% | 11% | 16.2% | inhibition at 0.01 µM [3]: 13.8%; inhibition at 100 µM [4]: 94.6%; inhibition at 10 µM [4]: 95%; inhibition at 1 µM [4]: 50.7%; inhibition at 0.1 µM [4]: 24.3%; inhibition at 0.01 µM [4]: 17.9% |
| 216 to 217 °C | COc1ccc(-c2nc3cc4c5c(cccc5c3s2)C(=O)N(CCN(C)C)C4=O)cc1 [compound 9, N-(N′,N′-dimethylaminoethyl)-4H, 6H-9-p-methoxy phenyl-benzo[de]thiazol[5,4-g]isoquinoline-4,6-diketone] |  |  |  |  |  | 94.9% | 93.9% | 94.5% | 69.4% | 44.5% |  |  |  |  | 95.1% | 92.3% | 78.2% | 15.2% | 21% | activity against mice S180 sarcoma (in words) (S-180 sarcoma): not potent; also recorded: active against S180 sarcoma, but weaker than C16 |
| 185 to 186 °C | CCCCn1c(=O)c2ccc3sc4ccccc4c4ccc(c1=O)c2c34 [compound 1, N-butyl benzo[k, l]thioxanthene-3,4-dicarboximide] | 100% | 98.5% | 97.7% | 77.4% | 1.1% | 34.4% | 0% | 0% | 0% | 0% | 87.5% | 56.2% | 46% | 21.4% | 51.7% | 10.2% | 6.4% | 2.2% | 4.3% | inhibition at 0.01 µM [3]: 9.8%; inhibition at 100 µM [4]: 70.1%; inhibition at 10 µM [4]: 76.9%; inhibition at 1 µM [4]: 67%; inhibition at 0.1 µM [4]: 3.7%; inhibition at 0.01 µM [4]: 6.6% |
| 212 to 213 °C | CN(C)CCn1c(=O)c2ccc3sc4ccccc4c4ccc(c1=O)c2c34 [compound 2, N-(N′,N′-dimethylaminoethyl)benzo[k, l]thioxanthene-3,4-dicarboximide] | 100% | 100% | 97.7% | 42.3% | 0% | 91.3% | 90.2% | 75.1% | 50.2% | 16.9% | 96.2% | 88% | 37.8% | 28.5% | 99.9% | 78.9% | 22.2% | 7.7% | 10.1% | inhibition at 0.01 µM [3]: 0.8%; inhibition at 100 µM [4]: 95.1%; inhibition at 10 µM [4]: 90.7%; inhibition at 1 µM [4]: 72.9%; inhibition at 0.1 µM [4]: 24.9%; inhibition at 0.01 µM [4]: 14.2% |
| 178 to 179 °C | CN(C)CCN1C(=O)c2cccc3c2c(cc2nnsc23)C1=O [compound 11, 5-(N′,N′-dimethylaminoethyl)-4H, 6H-benzo[de]-1,2,3,-thiadiazol[5,4-g]isoquinoline-4,6-diketone] | 100% | 100% | 100% | 82.8% | 0% | 95.7% | 93.7% | 94.5% | 76.6% | 20.2% | 96.5% | 97.1% | 38.9% | 16.7% | 98.7% | 92.7% | 42.2% | 13.8% | 10.7% | inhibition at 0.01 µM [3]: 1.1%; inhibition at 100 µM [4]: 95.7%; inhibition at 10 µM [4]: 90.9%; inhibition at 1 µM [4]: 74%; inhibition at 0.1 µM [4]: 20.1%; inhibition at 0.01 µM [4]: 24.4% |
| 177 to 179 °C | CCCCN1C(=O)c2cccc3c2c(cc2nnsc23)C1=O [compound 12, 5-butyl-4H, 6H-benzo[de]-1,2,3,-thiadiazol[5,4-g]isoquinoline4,6-diketone] |  |  |  |  |  | 69.4% | 75.2% | 0% | 2.3% | 0% |  |  |  |  | 54.3% | 23.2% | 17.1% | 12.3% | 15.6% |  |

From patent US7541463B2, “Sulfur-containing naphthalimide derivatives” (East China University of Science and Technology, priority 2003, dated 2009)
